In the assay the target is eosinophils purified from human peripheral blood. Nature of the assay: Eosinophil chemotaxis assay (eotaxin-induced). Type of assay: cell-based. The settings on record: functional pKi; inhibition of human eosinophil chemotaxis to eotaxin (EC80 concentration). On the procedure:
(b) Eosinophil Chemotaxis Assay.
Compounds were evaluated for their inhibitory effect on eosinophil chemotaxis. Eosinophils were purified from human peripheral blood by standard CD16 cell depletion using a Miltenyi cell separation column and a magnetic Super Macs magnet as previously described (Motegi & Kita, 1998; J. Immunology. 161:4340-6). Cells were re-suspended in RPMI 1640/10% FCS solution and incubated with calcein-AM (Molecular Probes) at 37° C. for 30 mins. Following incubation, the eosinophils were centrifuged at 400 g for 5 min and re-suspended in RPMI/FCS at 2.2 million/ml. Cells were then incubated in the presence of increasing concentration of compounds (1 pM to 30 μM) at 37° C. for 30 mins. For control responses cells were incubated with RPMI/FCS only. The agonist eotaxin (an EC80 concentration) was added to the lower chamber of a 96 well chemotaxis plate (5 μm filter: Receptor Technologies). Eosinophils (50 μl of 2 million/ml cells) were added to the top chamber of the filter plate and incubated at 37° C. for 45 mins. Cells remaining on top of the chemotaxis filter were removed and the number of eosinophils which had migrated were quantified by reading the plate on a fluorescent plate reader. Inhibition curves for the effect of compounds on eosinophil chemotaxis were analysed by fitting the data with a four parameter logistic equation. […]

For `O=C(NCc1nnn(CC2CC2)n1)NC[C@H]1CN(Cc2ccc(Cl)c(Cl)c2)CCO1` [Example 97, 1-(2-Cyclopropylmethyl-2H-tetrazol-5-ylmethyl)-3-[(2S)-4-(3,4-dichlorobenzyl)morpholin-2-ylmethyl]-urea], the fpKi was 9.2.

With `CNC(=O)c1csc(CNC(=O)NC[C@H]2CN(Cc3ccc(Cl)c(Cl)c3)CCO2)c1` [Example 116, 5-{3-[(2S)-4-(3,4-Dichlorobenzyl)-morpholin-2-ylmethyl]-ureidomethyl}-thiophene-3-carboxylic acid methylamide], the fpKi is listed as 9.8.
